The values that follow come from patent publication US6476021B1 (priority 1997, dated 2002).

For orientation: melting point means the temperature, or range, at which the solid turns liquid. Usually IC50 stands for the point on the concentration scale where inhibition reaches its midpoint. By MRT is commonly meant the average time that molecules of a dose stay in the body. By Tmax is commonly meant the time from dosing to the highest level.

SMILES strings stand for the structures. Counter-ions that a name gives are not always drawn. Bounds are passed on as bounds.

For data set [1] the following is noted: rat, in vivo, 100 mg/kg.
A further data set addresses PDE type V (Canis lupus familiaris, UniProt O77746). Put plainly: biochemical.
Another data set has as its target PDE type VI (Bos taurus, UniProt P11541+P23439). Put plainly: biochemical.
For data set [2] the following is noted: intranasal administration.
For data set [3] the following is noted: rats.
Description: (§1) Eight-week-old male Wistar rats were anesthetized with intraperitoneal injection of urethane at 1 g/kg. The cervical portion was incised so that the trachea was exposed, and a polyethylene tube (SP120, Natsume) was inserted into the trachea. Then, a part of the esophagus was incised and a polyethylene tube with the same diameter was inserted into postnasal cavity, the tip was closed with absorbent cotton and glue. Leak of the drug solution from the nasoplatine was avoided by closing it with synthetic glue. Drugs were dissolved in 0.1% tartaric acid solution and administered through the nostrils at 500 μl/kg with micropipette and the nostrils were rapidly closed with glue. For the control, drugs were intravenously administered to rats. Constant volume of blood was intermittently collected from the tail vein into heparinized capillary after administration, and plasma was separated by centrifugation. Constant volume of plasma was extracted with t-butyl-methyl-ether three times and the organic phase was evaporated and dissolved in the HPLC initial phase. Constant volume of the organic phase was applied to the HPLC system equipped with an ultraviolet detector, and plasma drug concentration was determined with the reverse phase column. The time to reach the maximal concentration (Tmax), the mean residence time (MRT) and the mean absorption time (MAT) were calculated from measured values.
A short description of a further data set: in vivo. Particulars: male, Wistar, rat, plasma, inhaled or intranasal, 0.3 mg/kg.
The next data set concerns the target PDE type III (Canis lupus familiaris, UniProt A0A8I3NYE0). Particulars: read-out: Inhibition Activity IC50 Type III; PDE type III from canine aorta; 1 μM substrate.

Sequence of PDE type VI (P11541 2-856): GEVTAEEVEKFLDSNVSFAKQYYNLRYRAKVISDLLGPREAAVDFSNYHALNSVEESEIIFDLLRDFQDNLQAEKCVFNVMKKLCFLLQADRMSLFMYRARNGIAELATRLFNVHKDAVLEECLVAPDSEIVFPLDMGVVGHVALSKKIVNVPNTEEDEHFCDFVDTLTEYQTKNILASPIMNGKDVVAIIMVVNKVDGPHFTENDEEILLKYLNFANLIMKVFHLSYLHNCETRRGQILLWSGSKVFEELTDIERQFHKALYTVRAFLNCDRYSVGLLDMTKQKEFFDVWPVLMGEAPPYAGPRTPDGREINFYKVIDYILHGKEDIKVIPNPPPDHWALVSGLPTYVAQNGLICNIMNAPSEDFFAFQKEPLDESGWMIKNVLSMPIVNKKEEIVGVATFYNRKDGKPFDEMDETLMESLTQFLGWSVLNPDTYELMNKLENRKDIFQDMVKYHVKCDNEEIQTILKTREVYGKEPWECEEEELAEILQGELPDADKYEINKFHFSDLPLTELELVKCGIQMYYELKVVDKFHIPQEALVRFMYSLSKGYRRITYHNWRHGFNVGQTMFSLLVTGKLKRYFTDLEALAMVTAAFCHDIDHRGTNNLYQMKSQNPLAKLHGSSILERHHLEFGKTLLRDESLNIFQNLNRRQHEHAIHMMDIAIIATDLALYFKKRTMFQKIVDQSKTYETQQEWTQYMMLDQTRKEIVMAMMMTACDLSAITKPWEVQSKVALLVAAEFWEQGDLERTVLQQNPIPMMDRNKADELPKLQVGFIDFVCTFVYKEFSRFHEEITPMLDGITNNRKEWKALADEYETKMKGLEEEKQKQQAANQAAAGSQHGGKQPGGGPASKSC
Sequence of PDE type VI (P23439 2-850): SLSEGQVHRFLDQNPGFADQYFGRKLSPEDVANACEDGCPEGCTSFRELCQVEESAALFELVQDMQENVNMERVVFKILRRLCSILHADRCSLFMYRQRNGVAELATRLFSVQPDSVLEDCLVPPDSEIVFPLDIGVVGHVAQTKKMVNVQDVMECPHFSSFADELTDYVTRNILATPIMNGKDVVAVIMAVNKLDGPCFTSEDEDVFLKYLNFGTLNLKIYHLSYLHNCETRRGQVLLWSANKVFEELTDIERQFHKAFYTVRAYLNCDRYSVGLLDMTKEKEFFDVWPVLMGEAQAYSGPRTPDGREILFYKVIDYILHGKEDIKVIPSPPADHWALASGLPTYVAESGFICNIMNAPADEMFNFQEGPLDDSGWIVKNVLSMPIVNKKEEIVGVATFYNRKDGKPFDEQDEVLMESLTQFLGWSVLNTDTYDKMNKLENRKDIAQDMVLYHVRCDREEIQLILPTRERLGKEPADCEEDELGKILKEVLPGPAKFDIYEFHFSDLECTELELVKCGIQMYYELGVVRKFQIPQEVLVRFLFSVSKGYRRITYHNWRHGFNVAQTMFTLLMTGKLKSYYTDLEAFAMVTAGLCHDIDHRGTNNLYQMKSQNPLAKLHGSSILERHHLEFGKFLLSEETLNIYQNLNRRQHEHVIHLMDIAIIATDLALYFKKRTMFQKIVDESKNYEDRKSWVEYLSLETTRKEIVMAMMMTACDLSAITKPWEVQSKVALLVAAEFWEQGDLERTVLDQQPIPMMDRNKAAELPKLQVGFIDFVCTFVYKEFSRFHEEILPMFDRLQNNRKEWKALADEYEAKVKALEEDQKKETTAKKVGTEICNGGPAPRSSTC
Sequence of PDE type III (A0A8I3NYE0 1-1135): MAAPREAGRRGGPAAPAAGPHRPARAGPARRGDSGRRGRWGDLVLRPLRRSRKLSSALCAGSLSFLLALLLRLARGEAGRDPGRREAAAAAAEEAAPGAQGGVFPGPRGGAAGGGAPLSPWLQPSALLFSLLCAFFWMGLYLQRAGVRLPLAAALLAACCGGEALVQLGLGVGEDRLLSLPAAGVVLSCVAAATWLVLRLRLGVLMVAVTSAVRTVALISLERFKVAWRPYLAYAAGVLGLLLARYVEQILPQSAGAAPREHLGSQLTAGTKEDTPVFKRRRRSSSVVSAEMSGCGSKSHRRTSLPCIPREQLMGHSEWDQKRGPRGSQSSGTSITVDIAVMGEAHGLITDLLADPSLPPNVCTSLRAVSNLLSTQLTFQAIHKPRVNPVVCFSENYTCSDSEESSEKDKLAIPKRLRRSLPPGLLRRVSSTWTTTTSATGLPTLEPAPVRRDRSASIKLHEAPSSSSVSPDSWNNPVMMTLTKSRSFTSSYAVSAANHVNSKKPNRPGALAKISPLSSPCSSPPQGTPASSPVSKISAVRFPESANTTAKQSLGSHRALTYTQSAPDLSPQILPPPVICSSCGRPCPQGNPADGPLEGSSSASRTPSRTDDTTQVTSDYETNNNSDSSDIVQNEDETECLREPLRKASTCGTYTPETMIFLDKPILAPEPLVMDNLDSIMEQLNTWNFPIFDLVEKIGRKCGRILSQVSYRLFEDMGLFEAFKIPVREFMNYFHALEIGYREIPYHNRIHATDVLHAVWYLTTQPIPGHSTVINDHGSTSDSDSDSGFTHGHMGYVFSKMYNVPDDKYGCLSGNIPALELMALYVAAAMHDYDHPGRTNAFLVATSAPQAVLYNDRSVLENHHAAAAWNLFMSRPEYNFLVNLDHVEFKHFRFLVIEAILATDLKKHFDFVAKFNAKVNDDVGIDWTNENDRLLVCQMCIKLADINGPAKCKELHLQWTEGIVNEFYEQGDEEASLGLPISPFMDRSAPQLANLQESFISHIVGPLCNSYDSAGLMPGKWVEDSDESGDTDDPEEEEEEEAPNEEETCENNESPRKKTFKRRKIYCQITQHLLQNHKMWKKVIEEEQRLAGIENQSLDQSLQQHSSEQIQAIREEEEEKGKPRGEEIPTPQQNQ
Description for in vivo: as §1

As to `CC(=O)N1c2ccccc2-n2ccc(=O)c3cccc1c32`, the melting point was 275 °C (dec.).

`CN1c2ccccc2-n2ccc(=O)c3cccc1c32` displayed a melting point of 232.8 to 234.5 °C.

Turning to `O=c1ccn2c3ccc(Cl)cc3c3cncc1c32`, the melting point is 280 °C (dec.).

`O=c1ccn2c3c(cc(Cl)cc13)Oc1cc(Cl)ccc1-2`: the melting point was more than 300 °C.

For `O=c1ccn2c3cnccc3c3cccc1c32`, the melting point was 211.3 °C (dec.).

`COc1cc2c3c(c1)c(=O)c(Cc1cccnc1)cn3-c1cc(Br)ccc1O2`: the melting point lay within 277.1 to 280.3 °C.

Molecule `COc1cc2c(=O)c(Cc3cccnc3)cn3c4cc(Br)ccc4c(=O)c(c1)c23` gave a melting point of 247.5 to 251.1 °C.

Turning to `O=c1c(Cc2cccnc2)cn2c3cc(Br)ccc3c(=O)c3cc(O)cc1c32`, the melting point was more than 300 °C.

Consider `COc1cc2c3c(c1)c(=O)c(Cc1cccnc1)cn3-c1cc(Br)ccc1S2`, for which the melting point was 185.7 to 187.4 °C.

For `O=c1c(Cc2cccnc2)cn2c3c(cc(O)cc13)Sc1ccc(Br)cc1-2`, the melting point was 297.4 °C (dec.).

For `O=c1c(Cc2cccnc2)cn2c3c(cc(OCCCO)cc13)Sc1ccc(Br)cc1-2`, the melting point lay within 189.1 to 191.3 °C.

In turn, `CN(C)CCCOc1cc2c3c(c1)c(=O)c(Cc1cccnc1)cn3-c1cc(Br)ccc1S2` displayed a melting point of 160.3 to 163.3 °C.

As for `COc1cc2c3c(c1)c(=O)c(Cc1cccnc1)cn3-c1ccc(Br)cc1S2`, the melting point fell in the range of 137.3 to 138.1 °C.

Turning to `O=c1c(Cc2cccnc2)cn2c3c(cc(OCCCO)cc13)Sc1cc(Br)ccc1-2`, the melting point is 215.7 to 218.4 °C.

`COc1cc2c3c(c1)c(=O)c(C)cn3-c1cc(Br)ccc1S2` displayed a melting point of 231.7 to 233.7 °C.

Molecule `Cc1cn2c3c(cc(O)cc3c1=O)Sc1ccc(Br)cc1-2` came in with a melting point of more than 300 °C.

For the molecule `Cc1cn2c3c(cc(OCCCO)cc3c1=O)Sc1ccc(Br)cc1-2`, the melting point lay within 188.9 to 197.8 °C.

As for `COc1cc2c3c(c1)c(=O)c(Cc1ccccc1)cn3-c1cc(Br)ccc1S2`, the melting point fell in the range of 218.1 to 219.3 °C.

`O=c1ccn2c3c(cc(Cl)cc13)Sc1cc(Cl)ccc1-2` displayed a melting point of more than 300 °C.

As to `O=c1c(Cc2ccccc2)cn2c3c(cc(O)cc13)Sc1ccc(Br)cc1-2`, the melting point was 268.1 to 274.3 °C.

Consider `O=c1c(Cc2ccccc2)cn2c3c(cc(OCCCO)cc13)Sc1ccc(Br)cc1-2`, for which the melting point is 152 to 168.3 °C.

Molecule `COc1cc2c3c(c1)c(=O)c(Cc1cncnc1)cn3-c1cc(Br)ccc1S2` returned a melting point of 206.6 to 210.7 °C.

As to `O=c1c(Cc2cccnc2)cn2c3c(cccc13)Oc1ccccc1-2` [Example 4, 2-(3-pyridylmethyl)-3H-pyrido[3,2,1-kl]phenoxazin-3-one], in data set [1], the “body weights and general symptoms” value is “nothing abnormal”; the “death of animals until the next day after the end of administration” value (“death of animals until the next day” below) is on record as “none of the animals were found to be dead”.

With `CC(=O)N1c2ccccc2-n2cc(Cc3ccccc3)c(=O)c3cccc1c32` [Example 10, 7-acetyl-2-benzyl-3H,7H-pyrido[3,2,1-de]phenazin-3-one], in data set [1], the “body weights and general symptoms” value was “nothing abnormal”; the “death of animals until the next day” value is “none of the animals were found to be dead”.

Take `O=c1ccn2c3c(cccc13)Nc1ccccc1-2` [Example 14, 3H,7H-pyrido[3,2,1-depphenazin-3-one]: in data set [1], the “body weights and general symptoms” value is reported as “nothing abnormal”; the “death of animals until the next day” value is “none of the animals were found to be dead”.

For the molecule `O=c1c(Cc2cccnc2)cn2c3ccccc3c(=O)c3cccc1c32` [Example 18, 2-(3-pyridylmethyl)-3H,7H-pyrido[3,2,1-de]acridin-3,7-dione], in data set [1], the “body weights and general symptoms” value was “nothing abnormal”; the “death of animals until the next day” value is recorded as “none of the animals were found to be dead”.

With `O=c1c(Cc2cccnc2)cn2c3cc(Br)ccc3c(=O)c3cc(OCCCO)cc1c32` [Example 34, 10-bromo-5-(3-hydroxypropyloxy)-2-(3-pyridylmethyl)-3H,7H-pyrido[3,2,1-de]acridin-3,7-dione], the melting point is 165 °C (dec.).

Regarding `O=c1c(Cc2cccnc2)cn2c3cc(Br)ccc3c(=O)c3cc(OCc4cccnc4)cc1c32` [Example 35, 10-bromo-2-(3-pyridylmethyl)-5-(3-pyridylmethyloxy)-3H,7H-pyrido[3,2,1-de]acridin-3,7-dione], the melting point was 262.4 to 264.6 °C. The same molecule had an IC50 against PDE type V of 1.8 nM. The same molecule yielded an IC50 on PDE type VI of 15 nM.

`O=c1c(Cc2cccnc2)cn2c3c(cc(OCc4cccnc4)cc13)Sc1ccc(Br)cc1-2` [Example 39, 10-bromo-2-(3-pyridylmethyl)-5-(3-pyridylmethyloxy)-3H-pyrido[3,2,1-kl]phenothiazin-3-one] yielded a melting point of 170.8 to 172.1 °C. At PDE type V, 3.8 nM corresponded to half-maximal inhibition (IC50). Also, the IC50 at PDE type VI worked out at 61 nM. For the same molecule, in data set [2], the “abnormalities in nasal mucosa during the experimental period” value is listed as “no abnormalities” and the “irritativeness from the observation at drug administration” value is listed as “no irritativeness”.

In the case of `O=c1c(Cc2cccnc2)cn2c3c(cc(OCc4ccncc4)cc13)Sc1ccc(Br)cc1-2` [Example 43, 10-bromo-2-(3-pyridylmethyl)-5-(4-pyridylmethyloxy)-3H-pyrido[3,2,1-kl]phenothiazin-3-one], the melting point fell in the range of 194.2 to 196.1 °C. Also, it took 2.8 nM to reach half-maximal inhibition on PDE type V (IC50). In addition, the midpoint of inhibition on PDE type VI, the IC50, lay at 36 nM.

Take `O=c1c(Cc2cccnc2)cn2c3c(cc(OCc4ccccn4)cc13)Sc1ccc(Br)cc1-2` [Example 44, 10-bromo-2-(3-pyridylmethyl)-5-(2-pyridylmethyloxy)-3H-pyrido[3,2,1-kl]phenothiazin-3-one]: the melting point was in the range of 94.6 to 96.4 °C.

As for `O=c1c(Cc2cccnc2)cn2c3c(cc(OCCN4CCCCC4)cc13)Sc1ccc(Br)cc1-2` [Example 50], the melting point is 166.5 to 169 °C.

In the case of `CC(C)N(CCOc1cc2c3c(c1)c(=O)c(Cc1cccnc1)cn3-c1cc(Br)ccc1S2)C(C)C` [Example 51], the IC50 is 11 nM against PDE type V and 180 nM on PDE type VI.

Molecule `CS(=O)(=O)O.CS(=O)(=O)O.O=c1c(Cc2cccnc2)cn2c3c(cc(OCc4cccnc4)cc13)Sc1ccc(Br)cc1-2` [Example 81, 10-bromo-2-(3-pyridylmethyl)-5-(3-pyridylmethyloxy)-3H-pyrido[3,2,1-kl]phenothiazin-3-one dimethanesulfonate] came in with a melting point of 238.7 to 242.3 °C. For the same molecule, in data set [3], the “absorption by intranasal administration” value is “rapid and effective absorption”. In data set [3] (intranasal administration), the “Tmax and MRT in comparison with oral administration” value is listed as “shortened”; the duration entry was “proper duration”; the first-pass effect entry is listed as “no first-pass effect”. Moreover, the MAT in data set [3] (intranasal administration, dose 0.3 mg/kg) is recorded as 0.2 ˜ 0.3 hr. Further, in “in vivo”, the MRT is 48 to 60 min and the Tmax was in the range of 12 to 30 min.

`CCCc1nn(C)c2c(=O)[nH]c(-c3cc(S(=O)(=O)N4CCN(C)CC4)ccc3OCC)nc12` [Sildenafil, 5-[2-ethoxy-5-(4-methylpiperazin-1-ylsulphonyl)phenyl]-1-methyl-3-propyl-6,7-dihydro-1H-pyrazolo[4,3-d]pyrimidin-7-one citrate]: the IC50 at PDE type III is 13000 nM.
